Reference: patent US20070225213A1, “Nucleic acid carriers for delivery of therapeutic agents” (priority 2006, published 2007)

Tests used:
[1] = tested on: COS7; experiment: Cell uptake by MTN fluorescence EX620/EM680 (Examples 10 and 13, EX051605); assay type: cell-based, green monkey; details: 10% w/w loading in DNA
Protocol: Materials: HSGDNA, MTN, ODNAS1116 (phosphorothioated, single stranded DNA, and Beta-cyclodextrin polymer (BCD-SBE, KKBIOMED Inc.) were previously prepared in water at 10 mg/ml, 1 mg/ml, 0.95 mg/ml, and 10 mg/ml respectively.
Procedure: For NAC-MTN, combined 37 ul HSGDNA (herring genomic DNA, Promega Inc.), 1426 ul HBSS( Hank's buffered saline, Sigma-Aldrich), with 37 ul of MTN, followed by 1500 ul 2× DMEM media to give 3 ml final and 24 uM (24 micro-molar) MTN and 10% w/w drug loading of MTN. For NAC-MTN (AR1505) combined 62 ul of HSDNA (deg. herring sperm DNA, Sigma) with 2377 ul HBSS, 61.7 ul MTN, 2500 ul 2× media to give 5 ml final and 24 uM MTN and 10% w/w drug loading of MTN to HSDNA. […]
Plate#1 Media was aspirated and cells treated with 100 ul of either NAC-MTN, CD-MTN, or MTN at 24 uM MTN final or 12.3 ug/ml MTN in all samples. Samples containing MTN were incubated 4 hours, removed, and fluorescence taken at EX620/EM680. […]
Samples were incubated 4 hours, removed, and MTN fluorescence taken at EX620/EM680. […] Average MTN fluorescence was averaged from 6 wells. For each cell type, MTN fluorescence was highest in MTN treated cells, followed by CD-MTN, and lowest in NAC-MTN. […]
PLATE#2: Dispensed 50 ul from source plate into plate #2 to give 150 ul final vol 4.1 ug/ml, 8 uMfinal per well, pre-read fluorescence w samples (bkgd) incubated 5 hr, removed, replaced w/ media, read fluor. […]

[2] = In vivo MTN distribution in organs and recovery in urine after multiple i.v. dosing (Example 16, EX102205)
[3] = three i.v. doses, 24 hours after first injection

With `O=C1c2c(O)ccc(O)c2C(=O)c2c(NCCNCCO)ccc(NCCNCCO)c21` [MTN, mitoxantrone] the “% reduction in fluorescence relative to MTN alone (MTN = 0%)” value ([1]; Plate#1, 24 uM MTN, 4 hours) was 0%, the “% reduction in fluorescence relative to MTN alone (MTN = 0%)” value ([1]; Plate#2, 8 uM MTN) was 0% and the “MTN % dose recov. (urine)” value ([2]; Collect Time 0-2 hr) was 2.9%. The “MTN Recov. (urine)” value ([2]; Collect Time 0-2 hr, dose 0.18 mg (NAC-MTN) or 0.17 mg (MTN) at 0 hr) was 0.0049 mg, the “MTN % dose recov. (urine)” value ([2]; Collect Time 3-12 hr) was 12% and the “MTN Recov. (urine)” value ([2]; Collect Time 3-12 hr, dose 0.225 mg at 3 hr) was 0.0279 mg. For the same compound, the “MTN % dose recov. (urine)” value ([2]; Collect Time 12-24 hr) was 13%, the “MTN Recov. (urine)” value ([2]; Collect Time 12-24 hr, dose 0.225 mg at 22 hr) was 0.0297 mg and the “MTN in Heart” value [2, 3] was 0.033 mg/g tissue. For the same compound, the “MTN in Kidney” value [2, 3] was 0.26 mg/g tissue, the “MTN in Liver” value [2, 3] was 0.077 mg/g tissue and the “MTN in Lung” value [2, 3] was 0.027 mg/g tissue. The “MTN in Kidney” value ([2]; three i.v. doses, 24 hours after first injection, listed as MTN only) was 0.261 mg/g tissue.
